Data published in US20170165317A1, “METHOD FOR MITIGATING OR ALLEVIATING SYNAPTIC AND COGNITIVE DEFICITS” (Trustees of Dartmouth College, priority 2013, published 2017).
Square brackets hold non-standard residues; d marks the D form. Peptide text beside a SMILES is read from it. * marks the point of attachment. ξ: configuration not given here. Myristoyl = CCCCCCCCCCCCCC(=O)*; dThr(3ξ) = CC(O)[C@@H](N)C(=O)O; Ile(3ξ) = CCC(C)[C@H](N)C(=O)O

How the values were obtained:
[1] = system: hippocampal CA3 and CA1 cells from acute slices; assay: fEPSP input-output curve (basal synaptic transmission) in acute hippocampal slices exposed to protofibrillar Aβ42; type: cell-based, mice; conditions: for basal synaptic transmission in the absence of Aβ treatment: peptide alone; for Aβ-induced synaptic depression: slices preincubated with peptide 1 hour before synthetic protofibrillar Aβ
Experimental: Mice were anesthetized with sodium pentothal (20 mg/kg ip) and decapitated. The brain was rapidly removed to ice-cold, oxygenated, dissection solution. Coronal slices (300 μm) were made with a vibratome (LEICA VT1200S) and slices were moved to a recovery chamber containing aCSF at room temperature for at least 1.5 hour before recording.
(§1) A concentric bipolar platinum-iridium stimulation electrode and a low-resistance glass recording microelectrode filled with aCSF (3-4 MΩ resistance) were placed in CA1 stratum radiatum to record the extracellular field excitatory postsynaptic potentials (fEPSPs). For each slice, an input-output curve was recorded to compare basal synaptic transmission at different conditions. This curve was also used to set the baseline fEPSP at ≈30% (for LTP experiments) or ≈50% (for LTD experiments) of maximal slope. Baseline stimulation was delivered every 15 seconds (0.01 ms duration pulses) for at least 20 minutes before beginning the experiment to ensure stability of the response. LTP was induced by using θ-burst stimulation (4 pulses at 100 Hz, with the bursts repeated at 5 Hz and each tetanus including three 10-burst trains separated by 15 seconds). LTD was induced using 900 pulses at 1 Hz. Responses were recorded for 1 hour after induction of LTP or LTD.
Dissection solution (employed for slicing) composition: 10 mM D-glucose, 4 mM KCl, 26 mM NaHCO3, 233.7 mM sucrose, 5 mM MgCl2, 1:1000 Phenol Red. Artificial CSF (employed for recovery and recording) composition: 119 mM NaCl, 2.5 mM KCl, 1 mM NaH2PO4, 11 mM glucose, 1.2 mM MgCl2, 2.5 mM CaCl2. Osmolarity was adjusted to […].
For the first approach, protofibrillar Aβ was prepared by promoting aggregation under high-salt conditions (258 μM Aβ42, room temperature incubation (Jan, et al. (2010) Nat. Protoc. 5:1186-1209). The kinetics of Aβ42 aggregation were followed by thioflavin T fluorescence and SDS-PAGE western blot analysis with the N-terminal anti-Aβ antibody 6E10. Also, the heterogeneous nature of these Aβ42 assemblies was evidenced by electron microscopy. Synaptic function was assessed by electrophysiological recordings of field excitatory postsynaptic potential (fEPSPs) between hippocampal CA3 and CA1 cells from acute slices prepared from 5-month-old mice. The results indicated a ≈60% decrease in the magnitude of synaptic transmission (input-output curve) when slices were incubated for 2 hours in aCSF containing pathogenic protofibrillar Aβ42 species (1 μM). This decrease in the basal synaptic transmission was prevented when Aβ was added to slices that were preincubated with the PTEN inhibitor (50 nM VO-OHpic) for 1 hour (VO-OHpic and Aβ were also present in the perfusion solution during electrophysiological recordings). VO-OHpic alone had no effect on basal synaptic transmission. […] The potency and specificity of this inhibitor have been documented previously (Rosivatz, et al. (2006) ACS Chem. Biol. 1:780-790).
The effect of these peptides on Aβ-treated neurons was subsequently tested.

acute mice slices = assay: LTD of fEPSPs in acute hippocampal slices; type: cell-based; conditions: peptide 10 μM, 1-2.5 hours incubation
Experimental: as §1
It was posited that the PTEN-PDZ peptide would saturate PDZ interaction sites of PTEN, consequently preventing anchoring of PTEN to PDZ proteins, and in this manner it would prevent LTD.

APP/PS1 mice = assay: Novel object location task after i.c.v. infusion by osmotic minipump; type: in vivo, mouse; conditions: APP/PS1 mice, peptide 2 mM in pump, i.c.v. 3-4 weeks; p=0.027 vs vehicle-infused APP/PS1; recognition index similar to wild-type
Experimental: APP/PS1 and wild-type mice were anesthetized with isofluorane, and i.c.v. delivery cannulas (brain alzet kit III) were implanted with a stereotaxic frame (KOPF Instruments) at the following coordinates according to the bregma: AP, −0.5 mm; ML, 1 mm; and DV, −2.2 mm. Osmotic minipumps (Alzet) were filled with artificial cerebrospinal fluid (aCSF) with or without PTEN inhibitor VO-OHpic (2.5 μM) and equilibrated in 0.9% NaCl at 37° C. for 48 hours. They were attached to the i.c.v. cannula tubing and subcutaneously implanted at the back. After 21 days, behavioral testing was started as described herein. One month after implantation, mice were sacrificed and the brains were sliced stained with Nissl to verify the location of the cannula. Animal manipulation and data analysis was carried out blind with respect to genotype and treatment.
Novel-Object Location. This assay was chosen because it is not intrinsically stressful. This factor, in mice, crucially affects cognitive performance in other spatial learning paradigms (e.g., Morris water maze). The memory tests were composed of three phases—“habituation”, “sample” and “choice” trials. Mice were first habituated individually to an empty open-field box (35×35×15 high cm) for 30 minutes. A sample trial (object exposure) consisted of placing a mouse into the test box which contained two identical objects. […] A recognition index was calculated by dividing the total time spent exploring the displaced object by the total time spent exploring both objects during the test session. […]
It was posited that if early Aβ-induced cognitive impairment results from a general synaptic bias toward LTD events (Selkoe (2002) Science 298:789-791), dampening this form of synaptic plasticity might prevent cognitive decay. Therefore, it was determined whether in vivo inhibition of PTEN, a lipid phosphatase that is involved in LTD (Jurado, et al. (2010) EMBO J. 29:2827-2840), would rescue cognitive deficits in APP/PS1 mice. […]

Aβ42 = target: T1, Aβ42 (Homo sapiens, UniProt P05067); assay: Thioflavin-T fluorescence assay of Aβ42 aggregation; type: biochemical; conditions: 50 nM VO-OHpic or 15 nM bPV(HOpic), 37° C.
T1 construct: Lyophilized Aβ42 peptide was purchased from Keck Facility at Yale University; purchased Keck Facility at Yale University; host or cells: synthetic peptide
Experimental: Freshly prepared Aβ42 was prepared as described for protofibrillar Aβ42. The Thioflavin-T (ThT) assay was carried out at 37° C., within a dark chamber in a 96-well plate. Each well contained 100 ng/μL of Aβ42, 20 μM ThT and 50 nM VO-OHpic or 15 nM bPV(HOpic). Fluorescence (λex=450 nm; λem=485 nm) was followed over time in a FLUOSTAR OPTIMA (BMG LabTech) fluorescence spectrophotometer. Samples were run in triplicates. […] Thus, the observed rescue of basal synaptic transmission, LTP and cognition, with VO-OHpic was not likely due to an altered aggregation state of Aβ upon PTEN inhibition.

[2] = system: APPswe/lnd-expressing neurons; assay: Paired whole-cell recording of AMPAR-mediated EPSCs in APPswe/lnd-expressing CA1 neurons of organotypic hippocampal slices; type: cell-based, rat; conditions: 15 nM bPV(HOpic) or 50 nM VO-OHpic during expression
Experimental: The effect of recombinant protein expression on synaptic transmission was evaluated by simultaneous double whole-cell recordings from pairs of nearby infected and uninfected CA1 neurons, under voltage clamp, while stimulating presynaptic Schaffer collateral fibers (under this configuration, recombinant proteins are expressed exclusively in the postsynaptic neuron).
The different versions of APP (APPwt, APPswe/lnd APPMV) and EGFP were co-expressed using an internal ribosomal entry site (IRES) construct. The EGFP-tagged versions of PTEN have been described (Jurado, et al. (2010) EMBO J. 29:2827-2840). All constructs were prepared in pSinRep5 for expression using Sindbis virus. Recombinant proteins were expressed in hippocampal CA1 pyramidal neurons from organotypic slice cultures. Organotypic hippocampal slices were prepared from postnatal day 5-7 rats and cultured during 6-8 days.
The external solution (aCSF) contained 119 mM NaCl, 2.5 mM KCl, 1 mM NaH2PO4, 11 mM glucose, 26 mM NaHCO3, 4 mM MgCl2, 4 mM CaCl2, 100 μM picrotoxin and 2 μM 2-chloroadenosine, pH 7.4, and was gassed with 95% O2 and 5% CO2. […] Bipolar stimulating electrodes were placed over Schaffer collateral fibers between 250 and 300 μm from the CA1 recorded cells, and synaptic responses were evoked with single voltage pulses (200 μs, up to 30 V). […]

T1 sequence (P05067 672-713): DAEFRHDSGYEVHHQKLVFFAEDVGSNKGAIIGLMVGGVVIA

| SMILES | basal synaptic transmission in the absence of Aβ treatment [1] | Aβ-induced synaptic depression [1] | LTD (fEPSP slope 50-60 minutes after induction) (acute mice slices) | spatial learning task (novel object location, recognition index) (APP/PS1 mice) | Aβ-induced synaptic depression ([1]; listed as N-myristoyl-QHSQITKV) | Aβ42 aggregation (ThT fluorescence) (Aβ42) | AMPAR-mediated EPSCs in APPswe/lnd-expressing neurons relative to uninfected cells [2] |
| --- | --- | --- | --- | --- | --- | --- | --- |
| CCCCCCCCCCCCCC(=O)N[C@@H](CO)C(=O)N[C@@H](C(=O)N[C@@H](Cc1c[nH]cn1)C(=O)N[C@@H](C(=O)N[C@H](C(=O)N[C@H](CCC(N)=O)C(=O)N[C@@H](CCCCN)C(=O)N[C@H](CCC(N)=O)C(=O)O)C(C)CC)C(C)O)C(C)C (stereo partly shown) [scrambled peptide, N-myristoyl-SVHTIQKQ] (Myristoyl-S[dV]H[dThr(3ξ)][Ile(3ξ)][dQ]K[dQ]-OH) | neither peptide altered basal synaptic transmission | did not | did not have any effect | – | – | – | – |
| CCCCCCCCCCCCCC(=O)N[C@@H](CCC(N)=O)C(=O)N[C@H](Cc1c[nH]cn1)C(=O)N[C@@H](CO)C(=O)N[C@H](CCC(N)=O)C(=O)N[C@H](C(=O)N[C@@H](C(=O)N[C@@H](CCCCN)C(=O)N[C@@H](C(=O)O)C(C)C)C(C)O)C(C)CC (stereo partly shown) [PTEN-PDZ peptide, N-myristoyl-QHSQITKV] (Myristoyl-Q[dH]S[dQ][Ile(3ξ)][dThr(3ξ)]K[dV]-OH) | neither peptide altered basal synaptic transmission | prevented synaptic depression | completely blocked LTD | significant improvement | blocks Aβ-induced synaptic depression | – | – |
| O=C1C=C/C(=C(/[O-])O)N=C1.[K+].[O-][O-].[O-][O-].[O]=[V] [bPV(HOpic)] | – | – | – | – | – | does not alter Aβ42 aggregation | no longer depressed |
